Results published in patent US20110190235A1, “BORON-CONTAINING SMALL MOLECULES AS ANTIPROTOZOAL AGENTS” (Anacor Pharmaceuticals, Inc., priority 2009, published 2011).
Values after ≈ are worked out from the molar mass of the structure shown. Read-outs that look alike come from different tables or passages of the source.

How the values were obtained:
[1] = Kinetic solubility by nephelometric (light scattering) method; format: physicochemical; settings: PBS pH 7.4
[2] = Pharmacokinetic studies in mice (plasma, brain); format: in vivo; settings: for Cmax: normalized to 25 mg/kg (nominal 25 mg/kg); for AUC(0-t) / AUC(0-inf): normalized to 25 mg/kg; for AUC(0-t): read-out: Exposure/trapezoid AUC0-18; for AUC(0-inf): read-out: Exposure/trapezoid AUC0-inf
Method: Male CD-1 mice weighing approximately 25 g received the test article (E19 or 82 or E14 or 69) by either intravenous (IV), oral gavage (OG) or intra-peritoneal (IP) routes. Animals in IV group (6-10 animals, 1-2 per time point) received a single bolus injection of approximately 2 mg/kg of the test article. Animals receiving […], or as 4 repeat doses ([…], 1-2 per time point).
All doses were administered as clear colorless solutions in either: 50% (v/v) PEG400:20% (v/v) ethanol:30% (v/v) carboxymethylcellulose (0.5% w/v in sterile water for injection, WFI), or as in situ sodium salts in 5% (m/v) dextrose:2% (v/v) ethanol in DWI. All dose solutions were delivered at 4 mL/kg. Animals were fasted for at least 4 hours before dosing, and for 2 hours after dosing.
Blood samples and brain tissue were sampled from 1 or 2 animals/timepoint/group immediately before dosing and approximately 0.17, 0.5, 1, 2, 3, 4, 6, 8, 12, 18 and 24 hr after dosing for full pharmacokinetic and tissue analysis, or at 0.5, 2 and 4 hours post dosing to assess early-phase CNS disposition.
Bioanalysis for test article in whole blood, plasma or brain tissue was performed by HPLC with tandem mass spectrometry (LC-MSMS). Whole blood and plasma samples were treated with 3 volumes of either acetonitrile or methanol to precipitate plasma proteins. Treated samples were centrifuged and supernatants removed for analysis. Brain tissues were weighed and homogenized mechanically in the presence of 1 volume of phosphate-buffered saline (PBS). The resulting tissue suspensions were then diluted with a further volume of PBS, and then treated in the same manner as whole blood or plasma.
Extracted samples were assayed for test article by means of LC-MSMS employing reversed-phase chromatography coupled to a triple quadrupole mass spectrometer employing electrospray ionization in the positive ion mode. The analytical column was a Phenomenex Luna 3μ C8 50×2 mm, with an online sample purification step performed on a Phenomenex Synergi 4μ Polar RP 50×2 mm column.
Test articles were eluted using a binary mobile phase gradient comprising 5 mM Ammonium Acetate: 0.1% formic acid in either MeOH or H2O.
Non-compartmental analysis of plasma test article concentration versus time was performed in Microsoft Excel to generate pharmacokinetic parameters including: area under the curve (AUC), clearance (as Cl or Cl/F), volume of distribution (Vdss), half-life (t½), and bioavailability (F).

[3] = L929 cytotoxicity evaluation (resazurin); format: cell-based; settings: mouse, L929 mouse fibroblast cells; 72 hrs incubation; read-out: Cytotox L-929 IC50
Procedure, shortened: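 Mouse L929 fibroblasts (1×10^4/mL seeding, attached overnight) were treated 72 h at 37 °C, 5% CO2 with serially diluted compounds in DMSO in D-MEM/10% FBS. Viability read by resazurin fluorescence after 3–4 h (ex 544/em 590 nm); IC50 from sigmoidal fits of single data points.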

[4] = male, CD-1, mouse, brain, oral, mice
[5] = male, CD-1, mouse, plasma, oral, mice

SMILES: CC1(C)OB(O)c2cc(NC(=O)c3ccc(F)cc3C(F)(F)F)ccc21 [compound 82]
- Solubility [1]: 25 µM (≈ 9.18 µg/mL)
- CL/F ([2]; male, CD-1, mouse, 25 mg/kg, plasma, oral, mice, read-out: Oral Clearance Cl/F (converted)): 3.27 mL/min/kg
- half-life ([2]; male, CD-1, mouse, 25 mg/kg, plasma, oral, mice, read-out: t½ (converted)): 6.9 h
- Cmax [2, 4]: 7700 ng/mL
- AUC(0-t) [2, 4]: 64900 ng·h/mL
- AUC(0-inf) [2, 4]: 65500 ng·h/mL
- Cmax [2, 5]: 9400 ng/mL
- AUC(0-t) [2, 5]: 108000 ng·h/mL
- AUC(0-inf) [2, 5]: 128000 ng·h/mL
- brain concentrations relative to the MIC ([2]; mouse and rat, brain (and CSF)): maintains concentrations above the MIC for extended time periods
- fold improved exposure in brain tissue over E19 ([2]; mouse, in vivo): 6-12 fold
- Fold improvement 82 vs. E19: Oral Clearance Cl/F ([2]; mouse, in vivo, po): 1.2 fold
- Fold improvement 82 vs. E19: t½ ([2]; mouse, in vivo, po): 0.4 fold
- fold improved plasma exposure (based on AUC) over E19 ([2]; mouse, in vivo, po): 2-4 fold
- Fold improvement 82 vs. E19: Cmax ([2]; mouse, in vivo, po, brain): 1.6 fold
- Fold improvement 82 vs. E19: Cmax ([2]; mouse, in vivo, po, plasma): 1.2 fold
- dose proportionality of brain exposure ([2]; oral delivery to mice): generally dose-proportional increases
- dose proportionality of plasma exposure ([2]; oral delivery to mice): greater than proportional at doses above 20 mg/kg
- F (% of IV) ([2]; plasma, oral, mice): 45%
- plasma PK when administered to rodents ([2]; rodents, plasma): good exposure (AUC and Cmax), promising bioavailability, prolonged half-life, and low clearance
- IC50 at 72 h [3]: > 10 µg/mL
